Source: ChEMBL document CHEMBL6153094, “Rationally designed highly amphipathic antimicrobial peptides demonstrating superior bacterial selectivity relative to the corresponding α-helix peptide” (Eur J Med Chem, 2025)
Where a SMILES comes first, the peptide text is derived from it. Bridges are numbered along the chain shown (N, C = ends). [ ]: non-standard residue; d: D form. The star is where a group is joined. X1 = CC[C@H](C)CCCCC(=O)*; Dab = NCC[C@H](N)C(=O)O

Key:
[1] = Toxicity in male Balb/c mouse assessed as balloon-like degeneration in liver at 22.48 mg/kg, ip administered for 7 days by H and E staining based analysis; format: organism-based; conditions: in vivo, 168 h, time 7 day
[2] = Toxicity in male Balb/c mouse assessed as lung bubble contraction at 22.48 mg/kg, ip administered for 7 days by H and E staining based analysis; format: organism-based; conditions: in vivo, 168 h, time 7 day
[3] = Toxicity in male Balb/c mouse assessed as inflammatory cell infiltration in lungs at 22.48 mg/kg, ip administered for 7 days by H and E staining based analysis; format: organism-based; conditions: in vivo, 168 h, time 7 day
[4] = Toxicity in male Balb/c mouse assessed as hemorrhage in liver at 22.48 mg/kg, ip administered for 7 days by H and E staining based analysis; format: organism-based; conditions: in vivo, 168 h, time 7 day
[5] = Toxicity in male Balb/c mouse assessed as alveolar septum thickening at 22.48 mg/kg, ip administered for 7 days by H and E staining based analysis; format: organism-based; conditions: in vivo, 168 h, time 7 day
[6] = Toxicity in male Balb/c mouse assessed as edema in liver at 22.48 mg/kg, ip administered for 7 days by H and E staining based analysis; format: organism-based; conditions: in vivo, 168 h, time 7 day
[7] = Acute toxicity in male Balb/c mouse assessed as animal death at 30 mg/kg, ip measured within 30 mins; format: organism-based; conditions: in vivo, 0.5 h
[8] = Toxicity in male Balb/c mouse assessed as lethal dose administered intraperitoneally for 7 days; conditions: in vivo, route ip, time 7 day
[9] = tested on: Staphylococcus aureus; assay: Antimicrobial activity against methicillin-drug resistant Staphylococcus aureus ATCC 33591 assessed as concentration required to eliminate 90% bacteria incubated for 18 hrs by broth-microdilution method; format: functional
[10] = tested on: Pseudomonas aeruginosa; assay: Antibacterial activity against Pseudomonas aeruginosa ATCC 27853 assessed as fold change in MIC incubated for 18 hrs in presence of FeCl3 by Mueller-Hinton broth based assay; format: functional
[11] = tested on: Pseudomonas aeruginosa; assay: Antibacterial activity against Pseudomonas aeruginosa ATCC 27853 assessed as fold change in MIC incubated for 18 hrs in presence of ZnCl2 by Mueller-Hinton broth based assay; format: functional
[12] = tested on: Staphylococcus aureus; assay: Antibacterial activity against Staphylococcus aureus ATCC 25923 assessed as fold change in MIC incubated for 18 hrs in presence of FeCl3 by Mueller-Hinton broth based assay; format: functional
[13] = tested on: Bacillus subtilis; assay: Antimicrobial activity against Bacillus subtilis ATCC 23857 assessed as inhibition of visible bacterial growth incubated for 18 hrs by broth microdilution method; format: functional
[14] = tested on: Staphylococcus aureus; assay: Antibiofilm activity in Staphylococcus aureus ATCC 25923 assessed as inhibition of biofilm formation at 2 times of MIC incubated for 24 hrs by crystal violet staining based analysis relative to control; format: functional
[15] = tested on: Pseudomonas aeruginosa; assay: Antibacterial activity against Pseudomonas aeruginosa ATCC 27853 assessed as fold change in MIC incubated for 18 hrs in presence of KCl by Mueller-Hinton broth based assay; format: functional
[16] = tested on: Staphylococcus epidermidis; assay: Antimicrobial activity against Staphylococcus epidermidis ATCC 12228 assessed as inhibition of visible bacterial growth incubated for 18 hrs by broth-dilution method; format: functional
[17] = tested on: Staphylococcus aureus; assay: Antibiofilm activity in Staphylococcus aureus ATCC 25923 assessed as inhibition of biofilm formation at 1 times of MIC incubated for 24 hrs by crystal violet staining based analysis relative to control; format: functional
[18] = tested on: Staphylococcus aureus; assay: Antibiofilm activity in Staphylococcus aureus ATCC 25923 assessed as inhibition of biofilm formation at 1/2 times of MIC incubated for 24 hrs by crystal violet staining based analysis relative to control; format: functional
[19] = tested on: Pseudomonas aeruginosa; assay: Antibacterial activity against Pseudomonas aeruginosa ATCC 27853 assessed as fold change in MIC incubated for 18 hrs in presence of NaCl by Mueller-Hinton broth based assay; format: functional
[20] = tested on: Pseudomonas aeruginosa; assay: Antimicrobial activity against Pseudomonas aeruginosa ATCC 27853 assessed as inhibition of visible bacterial growth incubated for 18 hrs by broth microdilution method; format: functional
[21] = tested on: Pseudomonas aeruginosa; assay: Antibiofilm activity in Pseudomonas aeruginosa ATCC 27853 assessed as inhibition of biofilm formation at 1 times of MIC incubated for 24 hrs by crystal violet staining based analysis relative to control; format: functional
[22] = tested on: Pseudomonas aeruginosa; assay: Resistance fold, ratio of MIC for Pseudomonas aeruginosa ATCC 27853 measured after 20 passages in presence of gentamicin to MIC for Pseudomonas aeruginosa ATCC 27853 measured immediately in presence of gentamicin; format: functional
[23] = tested on: Staphylococcus aureus; assay: Antimicrobial activity against Staphylococcus aureus ATCC 25923 assessed as inhibition of visible bacterial growth incubated for 18 hrs by broth-dilution method; format: functional
[24] = tested on: Staphylococcus aureus; assay: Antibacterial activity against Staphylococcus aureus ATCC 25923 assessed as fold change in MIC incubated for 18 hrs in presence of ZnCl2 by Mueller-Hinton broth based assay; format: functional
[25] = tested on: Staphylococcus aureus; assay: Synergistic antimicrobial activity against gentamicin-resistant Staphylococcus aureus ATCC 25923 assessed as fractional inhibitory concentration index incubated for 18 hrs in presence of gentamicin by checkerboard microdilution method; format: functional
[26] = tested on: Staphylococcus aureus; assay: Antibacterial activity against Staphylococcus aureus ATCC 25923 assessed as fold change in MIC incubated for 18 hrs in presence of NaCl by Mueller-Hinton broth based assay; format: functional
[27] = tested on: Acinetobacter baumannii; assay: Antimicrobial activity against Acinetobacter baumannii ATCC 19606 assessed as inhibition of visible bacterial growth incubated for 18 hrs by broth microdilution method; format: functional
[28] = tested on: Staphylococcus aureus; assay: Resistance fold, ratio of MIC for Staphylococcus aureus ATCC 25923 measured after 20 passages in presence of gentamicin to MIC for Staphylococcus aureus ATCC 25923 measured immediately in presence of gentamicin; format: functional
[29] = tested on: Pseudomonas aeruginosa; assay: Additive antimicrobial activity against gentamicin-resistant Pseudomonas aeruginosa ATCC 27853 assessed as fractional inhibitory concentration index incubated for 18 hrs in presence of gentamicin by checkerboard microdilution method; format: functional
[30] = tested on: Staphylococcus aureus; assay: Antibiofilm activity in Staphylococcus aureus ATCC 25923 assessed as inhibition of biofilm formation at 4 times of MIC incubated for 24 hrs by crystal violet staining based analysis relative to control; format: functional
[31] = tested on: Enterococcus faecalis; assay: Antimicrobial activity against Enterococcus faecalis ATCC 29212 assessed as inhibition of visible bacterial growth incubated for 18 hrs by broth-dilution method; format: functional
[32] = tested on: Klebsiella pneumoniae; assay: Antimicrobial activity against Klebsiella pneumoniae ATCC 700603 assessed as inhibition of visible bacterial growth incubated for 18 hrs by broth microdilution method; format: functional
[33] = tested on: Escherichia coli; assay: Antimicrobial activity against Escherichia coli ATCC 25922 assessed as inhibition of visible bacterial growth incubated for 18 hrs by broth microdilution method; format: functional
[34] = tested on: Pseudomonas aeruginosa; assay: Antibacterial activity against Pseudomonas aeruginosa ATCC 27853 assessed as fold change in MIC incubated for 18 hrs in presence of MgCl2 by Mueller-Hinton broth based assay; format: functional
[35] = tested on: Staphylococcus aureus; assay: Antibacterial activity against Staphylococcus aureus ATCC 25923 assessed as fold change in MIC incubated for 18 hrs in presence of MgCl2 by Mueller-Hinton broth based assay; format: functional
[36] = tested on: Staphylococcus aureus; assay: Resistance fold, ratio of MIC for Staphylococcus aureus ATCC 25923 measured after 20 passages to MIC for Staphylococcus aureus ATCC 25923 measured immediately; format: functional
[37] = tested on: Staphylococcus aureus; assay: Antibacterial activity against Staphylococcus aureus ATCC 25923 assessed as fold change in MIC incubated for 18 hrs in presence of KCl by Mueller-Hinton broth based assay; format: functional
[38] = tested on: Pseudomonas aeruginosa; assay: Resistance fold, ratio of MIC for Pseudomonas aeruginosa ATCC 27853 measured after 20 passages to MIC for Pseudomonas aeruginosa ATCC 27853 measured immediately; format: functional

For CC(C)CCCCC(=O)N[C@@H](CCN)C(=O)N[C@H](C(=O)N[C@@H](CCN)C(=O)N[C@H]1CCNC(=O)[C@H]([C@@H](C)O)NC(=O)[C@H](CCN)NC(=O)[C@H](CCN)NC(=O)[C@H](CC(C)C)NC(=O)[C@@H](Cc2ccccc2)NC(=O)[C@H](CCN)NC1=O)[C@@H](C)O.CC[C@H](C)CCCCC(=O)N[C@@H](CCN)C(=O)N[C@H](C(=O)N[C@@H](CCN)C(=O)N[C@H]1CCNC(=O)[C@H]([C@@H](C)O)NC(=O)[C@H](CCN)NC(=O)[C@H](CCN)NC(=O)[C@H](CC(C)C)NC(=O)[C@@H](Cc2ccccc2)NC(=O)[C@H](CCN)NC1=O)[C@@H](C)O (X1-[Dab]T[Dab][Dab][Dab][dF]L[Dab][Dab]T; lactam 4-C) [listing 1 of 2 here], the Activity [1] was “Toxic”, the Activity [2] was “Toxic” and the Activity [3] was “Toxic”. For the same compound, the Activity [4] was “Toxic”, the Activity [5] was “Toxic” and the Activity [6] was “Toxic”. For the same compound, the Activity [7] was “Toxic” and the LD50 at 168 h [8] was 22.5 mg/kg.

For CC(C)CCCCC(=O)N[C@@H](CCN)C(=O)N[C@H](C(=O)N[C@@H](CCN)C(=O)N[C@H]1CCNC(=O)[C@H]([C@@H](C)O)NC(=O)[C@H](CCN)NC(=O)[C@H](CCN)NC(=O)[C@H](CC(C)C)NC(=O)[C@@H](Cc2ccccc2)NC(=O)[C@H](CCN)NC1=O)[C@@H](C)O.CC[C@H](C)CCCCC(=O)N[C@@H](CCN)C(=O)N[C@H](C(=O)N[C@@H](CCN)C(=O)N[C@H]1CCNC(=O)[C@H]([C@@H](C)O)NC(=O)[C@H](CCN)NC(=O)[C@H](CCN)NC(=O)[C@H](CC(C)C)NC(=O)[C@@H](Cc2ccccc2)NC(=O)[C@H](CCN)NC1=O)[C@@H](C)O (X1-[Dab]T[Dab][Dab][Dab][dF]L[Dab][Dab]T; lactam 4-C) [listing 2 of 2 here], the EC90 [9] was 11.1 µM, the “fold change (FC)” value [10] was “<=2” and the “fold change (FC)” value [11] was “<=2”. For the same compound, the “fold change (FC)” value [12] was “<=2”, the MIC [13] was 8 µM and the “inhibition (INH)” value [14] was about 80%. For the same compound, the “fold change (FC)” value [15] was “<=2”, the MIC [16] was 8 µM and the “inhibition (INH)” value [17] was 75%. For the same compound, the “inhibition (INH)” value [18] was 55%, the “fold change (FC)” value [19] was 2 and the MIC [20] was under 1 µM. The “inhibition (INH)” value [21] was over 90%, the “fold change (FC)” value [22] was 8 and the MIC [23] was 16 µM. For the same compound, the “fold change (FC)” value [24] was “<=2”, the “fractional inhibitory concentration index (FICI)” value [25] was 0.375 and the “fold change (FC)” value [26] was 8. For the same compound, the MIC [27] was under 1 µM, the “fold change (FC)” value [28] was 8 and the “fractional inhibitory concentration index (FICI)” value [29] was 0.563. The “inhibition (INH)” value [30] was about 80%, the MIC [31] was 128 µM and the MIC [32] was under 1 µM. For the same compound, the MIC [33] was under 1 µM, the “fold change (FC)” value [34] was “<=2” and the “fold change (FC)” value [35] was “<=2”. For the same compound, the “fold change (FC)” value [36] was 4, the “fold change (FC)” value [37] was “<=2” and the “fold change (FC)” value [38] was 8.
